Molecular target: T1, KRAS G12D (Homo sapiens, UniProt P01116, G12D)
T1 construct: host or cells: AsPC-1 human pancreatic cancer cells
Assay: Test Example 1-1: KRAS degradation action in AsPC-1, sandwich ELISA
Format: cell-based
Settings: AsPC-1 cells, 24 hours treatment, corrected with β-actin, 0% = 10 μM Example No. 7
Description: Test Example 1-1: Evaluation of KRAS Degradation Action on Human G12D Mutant KRAS-Positive Pancreatic Cancer Line AsPC-1
The KRAS degradation action of test compounds was evaluated by measuring the expression levels of KRAS G12D by a sandwich ELISA method.
AsPC-1 cells (ATCC, CRL-1682) were seeded at 90 μL per well on a 96-well plate (from IWAKI) to give 1.8×10^4 cells per well. As for the cell culture conditions, RPMI 1640 medium (from Merck) containing 10% fetal bovine serum (from Cytiva) was used in the presence of 5% CO2 at 37° C.
The next day, the test compounds (10 points having final concentrations in the range of 10 μM to 0.3 nM) were diluted 100-fold with a fresh medium and were added at 10 μL per well. The same treatments were each applied to 4 wells. In addition, in production of the sandwich ELISA plate, a capture antibody (anti-KRAS antibody, from LS Bio) mixed in Phosphate Buffered Saline [PBS; from FUJIFILM Wako Pure Chemical Corporation] in 1,000-fold dilution was added at 20 μL per well to a Maxisorp 384-well plate (from Thermo Scientific), and after attaching a seal, the plate was allowed to stand at 4° C. overnight.
After 24 hours of the test compound treatment, the culture supernatant was discarded. Immediately, a cytolytic solution (produced by adding, to a RIPA buffer [from Thermo Scientific], a Halt Protease Phosphatese Inhibitor Cocktail [from Thermo Scientific] and Benzonase Nuclease [from Merck] in amounts of 1/100 and 1/500, respectively) was added at 50 μL per well, and the cells were lysed. Then, equally treated 4 wells were combined to prepare a cell lysate sample of 200 μL in total. For KRAS detection, the Maxisorp 384-well plate which had been treated with the capture antibody since the previous day was washed (twice with 25 μL each) with 0.05% Tween-20-containing PBS (from Thermo Scientific; 20×PBS Tween-20 was diluted 20-fold with ion exchange water and used) and was treated with a blocking solution (Intercept Blocking Buffer; from LI-COR Biosciences) for 60 minutes, and then, the cell lysate samples were added at 20 μL per well. For 3-actin detection, the cell lysate samples were added as they were at 20 μL per well to the Maxisorp 384-well plate, and after attaching a seal, the plate was allowed to stand at 4° C. overnight.
The next day, after washing the KRAS detection plate with 0.05% Tween-20-containing PBS, an anti-Ras (G12D mutant specific) antibody (from Cell Signaling Technology) diluted 1,000-fold with a blocking solution was added at 20 μL per well as a detection antibody, and the plate was allowed to stand for 5 hours at room temperature. Then, the plate was centrifuged to remove the supernatant (using a centrifugal dehydrator machine, the supernatant was removed by the same method hereinafter) and was washed with 0.05% Tween-20-containing PBS. Then, an anti-Rabbit IgG […] antibody (from Cell Signaling Technology) diluted 1,000-fold with a blocking solution was added at 20 μL per well as a secondary antibody, and the plate was allowed to stand for 1 hour at room temperature. The plate was centrifuged to remove the supernatant and was washed with 0.05% Tween-20-containing PBS. Then, a BM chemiluminescent ELISA substrate (from Merck) was added at 20 μL per well, and the amounts of luminescence were measured with 2103 EnVision (from PerkinElmer). In addition, the 3-actin detection plate was washed with 0.05% Tween-20-containing PBS and was treated with a blocking solution for 60 minutes, and then, an anti-β-actin antibody (from Abcam) diluted 1,000-fold with a blocking solution was added at 20 μL per well as a detection antibody. The plate was allowed to stand for 5 hours at room temperature. Then, the plate was centrifuged to remove the supernatant and washed with 0.05% Tween-20-containing PBS, and then, an anti-Mouse IgG RP-linked antibody (from Cell Signaling Technology) diluted 1,000-fold with a blocking solution was added at 20 μL per well as a secondary antibody. […]

T1 sequence (P01116 1-188 isoform P01116-2 G12D): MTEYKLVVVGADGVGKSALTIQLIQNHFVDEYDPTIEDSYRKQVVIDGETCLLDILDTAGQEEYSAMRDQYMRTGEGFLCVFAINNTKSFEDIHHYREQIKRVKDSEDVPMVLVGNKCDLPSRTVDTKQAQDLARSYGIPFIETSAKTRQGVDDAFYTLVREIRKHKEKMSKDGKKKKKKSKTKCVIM

| Compound | DC50 [nM] |
| --- | --- |
| Cc1ncsc1-c1ccc([C@H](CO)NC(=O)[C@@H]2C[C@@H](O)CN2C(=O)[C@H](C(C)C)n2cc(-c3ccc(COc4c(-c5c(C)c(F)cc6[nH]ncc56)c(C5CC5)cc5c(N6C[C@@H]7C[C@H]6CN7)nc(O[C@@H]6CCOC6)nc45)cc3)nn2)cc1 [Example 28] | 45 |
| Cc1ncsc1-c1ccc([C@H](CO)NC(=O)[C@@H]2C[C@@H](O)CN2C(=O)[C@H](C(C)C)n2cc(-c3ccc(COc4c(-c5c(C)c(F)cc6[nH]ncc56)c(C5CC5)cc5c(N6C[C@@H]7C[C@H]6CN7)nc(OC6CCOCC6)nc45)cc3)nn2)cc1 [Example 8, (4R)-1-[(2S)-2-(4-{4-[({6-cyclopropyl-4-[(1S,4S)-2,5-diazabicyclo[2.2.1]heptan-2-yl]-7-(6-fluoro-5-methyl-1H-indazol-4-yl)-2-[(oxan-4-yl)oxy]quinazolin-8-yl}oxy)methyl]phenyl}-1H-1,2,3-triazol-1-yl)-3-methylbutanoyl]-4-hydroxy-N-{(1R)-2-hydroxy-1-[4-(4-methyl-1,3-thiazol-5-yl)phenyl]ethyl}-L-prolinamide] | 37 |
| Cc1c(F)cc2[nH]ncc2c1-c1c(C2CC2)cc2c(N3C[C@@H]4C[C@H]3CN4)nc(OC3CCOCC3)nc2c1OCc1ccc(-c2cn([C@H](C(=O)N3C[C@H](O)C[C@H]3C(=O)N[C@@H](CO)c3ccc(F)cc3)C(C)C)nn2)cc1 [Example 13] | 151 |
| Cc1ncsc1-c1ccc(C2(NC(=O)[C@@H]3C[C@@H](O)CN3C(=O)[C@@H](NC(=O)c3ccc(COc4c(-c5c(C)c(F)cc6[nH]ncc56)c(C5CC5)cc5c(N6C[C@@H]7C[C@H]6CN7)nc(OC6CCOCC6)nc45)cc3)C(C)C)CC2)cc1 [Example 1] | 123 |
| Cc1c(F)cc2[nH]ncc2c1-c1c(C2CC2)cc2c(N3C[C@@H]4C[C@H]3CN4)nc(OC3CCOCC3)nc2c1OCc1ccc(-c2cn([C@H](C(=O)N3C[C@H](O)C[C@H]3C(=O)N[C@@H](CO)c3ccc(Br)cc3)C(C)C)nn2)cc1 [Example 12] | 136 |
| Cc1c(F)cc2[nH]ncc2c1-c1c(C2CC2)cc2c(N3C[C@@H]4C[C@H]3CN4)nc(OC3CCOCC3)nc2c1OCc1ccc(-c2cn([C@H](C(=O)N3C[C@H](O)C[C@H]3C(=O)N[C@@H](CO)c3ccc(N4CCOC4=O)cc3)C(C)C)nn2)cc1 [Example 20, (4R)-1-[(2S)-2-(4-{4-[({6-cyclopropyl-4-[(1S,4S)-2,5-diazabicyclo[2.2.1]heptan-2-yl]-7-(6-fluoro-5-methyl-1H-indazol-4-yl)-2-[(oxan-4-yl)oxy]quinazolin-8-yl}oxy)methyl]phenyl}-1H-1,2,3-triazol-1-yl)-3-methylbutanoyl]-4-hydroxy-N-{(1R)-2-hydroxy-1-[4-(2-oxo-1,3-oxazolidin-3-yl)phenyl]ethyl}-L-prolinamide] | 100 |
| Cc1ncsc1-c1ccc([C@@H](NC(=O)[C@@H]2C[C@@H](O)CN2C(=O)[C@H](C(C)C)n2cc(-c3ccc(COc4c(-c5c(C)c(F)cc6[nH]ncc56)c(C5CC5)cc5c(N6C[C@@H]7C[C@H]6CN7)nc(OC6CCOCC6)nc45)cc3)nn2)C(F)F)cc1 [Example 16] | 188 |
| Cc1ncsc1-c1ccc([C@H](CO)NC(=O)[C@@H]2C[C@@H](O)CN2C(=O)[C@H](C(C)C)n2cc(-c3ccc(COc4c(-c5c(C)c(F)cc6[nH]ncc56)c(C5CC5)cc5c(N6C[C@@H]7C[C@H]6CN7)nc(O[C@H]6CCOC6)nc45)cc3)nn2)cc1 [Example 29] | 33 |
